In paper PMC3262757 (Chemistry Central Journal, 2011):

Columns and labels:
JNK2 = format: cell-based
JNK1 = format: cell-based

CCOc1nc(NC(=O)Cc2cc(OC)c(NC(C)=O)cc2OC)cc(N)c1C#N [compound 2, 2-(4-acetylamino-2,5-dimethoxyphenyl)-N-(4-amino-5-cyano-6-ethoxypyridin-2-yl)acetamide]
IC50 (JNK2): ~1.5 µM
IC50 (JNK1): ~1.5 µM
